{"source": "patent US20170056386A1", "about": "“TOPICAL ANTIFUNGAL COMPOSITION FOR TREATING ONYCHOMYCOSIS” (Polichem SA, priority 2014, published 2017)", "origin": "cited, not measured here", "system": "onychomycosis", "conditions": "oral administration"}
{"compound": "CN(C/C=C/C#CC(C)(C)C)Cc1cccc2ccccc12", "note": "[terbinafine]", "values": [{"measurement": "Complete cure (patients)", "result": 38, "unit": "%"}]}
